Experimental data from US20230391768A2, “IMIDAZOPYRIDINE DERIVATIVES AND AZA-IMIDAZOPYRIDINE DERIVATIVES AS JANUS KINASE 2 INHIBITORS AND USES THEREOF” (Dana-Farber Cancer Institute, Inc., priority 2018, published 2023).
pIC50: −log10 of the molar value.

Experiments:
JAK2 = JAK2 (Homo sapiens (Human), UniProt O60674); assay: JAK2 Z-Lyte biochemical assay; conditions: commercial JAK2 Z-Lyte assay from Invitrogen
Procedure: The JAK2 Z-Lyte biochemical assay was performed according to manufacturer's instructions (Life Technologies).

MST1 = MST1 (Homo sapiens (Human), UniProt Q13043); assay: KINOMEscan; type: binding; conditions: read-out: percent of control
Procedure: (§1) In vitro profiling of Compound I-2 (1 μM) was performed using the DiscoveRx KINOMEscan® platform.

MAP3K1 = MAP3K1 (Homo sapiens (Human), UniProt Q13233); assay: KINOMEscan; type: binding; conditions: read-out: percent of control
Procedure: as §1

CDK3 = CDK3 (Homo sapiens (Human), UniProt Q00526); assay: KINOMEscan; type: binding; conditions: read-out: percent of control
Procedure: as §1

RET (M918T) = RET (M918T) (Homo sapiens (Human), UniProt P07949, M918T); assay: KINOMEscan; type: binding; conditions: read-out: percent of control
Procedure: as §1

SIK2 = SIK2 (Homo sapiens (Human), UniProt Q9H0K1); assay: KINOMEscan; type: binding; conditions: read-out: percent of control
Procedure: as §1

MAP4K5 = MAP4K5 (Homo sapiens (Human), UniProt Q9Y4K4); assay: KINOMEscan; type: binding; conditions: read-out: percent of control
Procedure: as §1

[1] = target: RPS6KA5 (Kin.Dom.1-N-terminal) (Homo sapiens (Human), UniProt O75582); assay: KINOMEscan; type: binding; conditions: read-out: percent of control
Procedure: as §1

GFR(L747-S752del, P753S) = target: GFR(L747-S752del, P753S (Homo sapiens (Human), UniProt P00533, DEL747-752/P753S)); assay: KINOMEscan; type: binding; conditions: read-out: percent of control
Procedure: as §1

PKMYT1 = PKMYT1 (Homo sapiens (Human), UniProt Q99640); assay: KINOMEscan; type: binding; conditions: read-out: percent of control
Procedure: as §1

S6K1 = S6K1 (Homo sapiens (Human), UniProt P23443); assay: KINOMEscan; type: binding; conditions: read-out: percent of control
Procedure: as §1

ALK(L1196M) = ALK(L1196M) (Homo sapiens (Human), UniProt Q9UM73, L1196M); assay: KINOMEscan; type: binding; conditions: read-out: percent of control
Procedure: as §1

GSK3A = GSK3A (Homo sapiens (Human), UniProt P49840); assay: KINOMEscan; type: binding; conditions: read-out: percent of control
Procedure: as §1

PRKD3 = PRKD3 (Homo sapiens (Human), UniProt O94806); assay: KINOMEscan; type: binding; conditions: read-out: percent of control
Procedure: as §1

PAK2 = PAK2 (Homo sapiens (Human), UniProt Q13177); assay: KINOMEscan; type: binding; conditions: read-out: percent of control
Procedure: as §1

CSK = CSK (Homo sapiens (Human), UniProt P41240); assay: KINOMEscan; type: binding; conditions: read-out: percent of control
Procedure: as §1

[2] = target: RSK1 (Kin.Dom.1-N-terminal) (Homo sapiens (Human), UniProt Q15418); assay: KINOMEscan; type: binding; conditions: read-out: percent of control
Procedure: as §1

PYK2 = PYK2 (Homo sapiens (Human), UniProt Q14289); assay: KINOMEscan; type: binding; conditions: read-out: percent of control
Procedure: as §1

NEK9 = NEK9 (Homo sapiens (Human), UniProt Q8TD19); assay: KINOMEscan; type: binding; conditions: read-out: percent of control
Procedure: as §1

FLT4 = FLT4 (Homo sapiens (Human), UniProt P35916); assay: KINOMEscan; type: binding; conditions: read-out: percent of control
Procedure: as §1

EPHA7 = EPHA7 (Homo sapiens (Human), UniProt Q15375); assay: KINOMEscan; type: binding; conditions: read-out: percent of control
Procedure: as §1

[3] = target: RSK1 (Kin.Dom.2-C-terminal) (Homo sapiens (Human), UniProt Q15418); assay: KINOMEscan; type: binding; conditions: read-out: percent of control
Procedure: as §1

PRKD2 = PRKD2 (Homo sapiens (Human), UniProt Q9BZL6); assay: KINOMEscan; type: binding; conditions: read-out: percent of control
Procedure: as §1

ULK3 = ULK3 (Homo sapiens (Human), UniProt Q6PHR2); assay: KINOMEscan; type: binding; conditions: read-out: percent of control
Procedure: as §1

EPHB2 = EPHB2 (Homo sapiens (Human), UniProt P29323); assay: KINOMEscan; type: binding; conditions: read-out: percent of control
Procedure: as §1

CSNK1G3 = CSNK1G3 (Homo sapiens (Human), UniProt Q9Y6M4); assay: KINOMEscan; type: binding; conditions: read-out: percent of control
Procedure: as §1

IKK-beta = IKK-beta (Homo sapiens (Human), UniProt O14920); assay: KINOMEscan; type: binding; conditions: read-out: percent of control
Procedure: as §1

CAMK2A = CAMK2A (Homo sapiens (Human), UniProt Q9UQM7); assay: KINOMEscan; type: binding; conditions: read-out: percent of control
Procedure: as §1

CSNK1E = CSNK1E (Homo sapiens (Human), UniProt P49674); assay: KINOMEscan; type: binding; conditions: read-out: percent of control
Procedure: as §1

EPHB 1 = EPHB 1 (Homo sapiens (Human), UniProt P54762); assay: KINOMEscan; type: binding; conditions: read-out: percent of control
Procedure: as §1

ROS1 = ROS1 (Homo sapiens (Human), UniProt P08922); assay: KINOMEscan; type: binding; conditions: read-out: percent of control
Procedure: as §1

OSR1 = OSR1 (Homo sapiens (Human), UniProt O95747); assay: KINOMEscan; type: binding; conditions: read-out: percent of control
Procedure: as §1

PIK3CA = PIK3CA (Homo sapiens (Human), UniProt P42336); assay: KINOMEscan; type: binding; conditions: read-out: percent of control
Procedure: as §1

CAMK2D = CAMK2D (Homo sapiens (Human), UniProt Q13557); assay: KINOMEscan; type: binding; conditions: read-out: percent of control
Procedure: as §1

DCAMKL1 = DCAMKL1 (Homo sapiens (Human), UniProt O15075); assay: KINOMEscan; type: binding; conditions: read-out: percent of control
Procedure: as §1

MLK2 = MLK2 (Homo sapiens (Human), UniProt Q02779); assay: KINOMEscan; type: binding; conditions: read-out: percent of control
Procedure: as §1

BTK = BTK (Homo sapiens (Human), UniProt Q06187); assay: KINOMEscan; type: binding; conditions: read-out: percent of control
Procedure: as §1

MAP3K1, sequence (Q13233 whole entry): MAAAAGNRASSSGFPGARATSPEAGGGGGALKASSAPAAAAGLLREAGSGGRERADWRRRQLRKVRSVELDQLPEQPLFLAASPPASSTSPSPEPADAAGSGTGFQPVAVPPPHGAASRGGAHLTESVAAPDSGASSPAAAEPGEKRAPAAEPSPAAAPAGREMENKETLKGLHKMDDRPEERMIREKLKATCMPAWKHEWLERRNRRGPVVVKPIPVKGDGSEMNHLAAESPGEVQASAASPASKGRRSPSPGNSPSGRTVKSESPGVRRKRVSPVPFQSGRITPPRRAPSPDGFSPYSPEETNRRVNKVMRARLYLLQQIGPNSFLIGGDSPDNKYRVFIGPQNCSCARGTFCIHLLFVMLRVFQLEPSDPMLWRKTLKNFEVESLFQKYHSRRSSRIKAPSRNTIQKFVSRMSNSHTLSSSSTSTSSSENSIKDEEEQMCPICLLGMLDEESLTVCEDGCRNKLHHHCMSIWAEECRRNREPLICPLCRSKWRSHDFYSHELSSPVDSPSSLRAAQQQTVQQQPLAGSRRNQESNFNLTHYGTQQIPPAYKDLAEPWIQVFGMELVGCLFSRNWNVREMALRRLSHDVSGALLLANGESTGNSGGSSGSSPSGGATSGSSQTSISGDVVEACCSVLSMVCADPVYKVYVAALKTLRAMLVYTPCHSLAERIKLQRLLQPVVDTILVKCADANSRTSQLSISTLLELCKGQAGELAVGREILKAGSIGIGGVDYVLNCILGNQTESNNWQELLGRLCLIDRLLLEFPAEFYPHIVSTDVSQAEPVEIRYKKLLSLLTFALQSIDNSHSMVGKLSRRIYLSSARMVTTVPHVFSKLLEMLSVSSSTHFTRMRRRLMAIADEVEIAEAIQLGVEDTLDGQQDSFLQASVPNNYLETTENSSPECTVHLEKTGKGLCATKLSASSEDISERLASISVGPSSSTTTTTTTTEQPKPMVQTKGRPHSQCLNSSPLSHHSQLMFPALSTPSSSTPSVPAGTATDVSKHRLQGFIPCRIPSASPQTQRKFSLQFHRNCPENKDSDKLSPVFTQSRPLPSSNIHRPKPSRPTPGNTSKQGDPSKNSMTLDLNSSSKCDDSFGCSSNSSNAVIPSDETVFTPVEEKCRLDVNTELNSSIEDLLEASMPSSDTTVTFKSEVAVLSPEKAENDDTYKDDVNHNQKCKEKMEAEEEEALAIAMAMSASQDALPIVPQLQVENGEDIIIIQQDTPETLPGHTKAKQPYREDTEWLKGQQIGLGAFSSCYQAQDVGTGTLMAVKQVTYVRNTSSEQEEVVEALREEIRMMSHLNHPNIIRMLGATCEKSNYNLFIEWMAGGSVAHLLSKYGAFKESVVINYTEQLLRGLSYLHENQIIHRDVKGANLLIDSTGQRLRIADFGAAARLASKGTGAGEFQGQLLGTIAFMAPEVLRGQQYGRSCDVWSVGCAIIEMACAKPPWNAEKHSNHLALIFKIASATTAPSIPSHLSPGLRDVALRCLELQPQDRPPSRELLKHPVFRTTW
CDK3, sequence (Q00526 whole entry): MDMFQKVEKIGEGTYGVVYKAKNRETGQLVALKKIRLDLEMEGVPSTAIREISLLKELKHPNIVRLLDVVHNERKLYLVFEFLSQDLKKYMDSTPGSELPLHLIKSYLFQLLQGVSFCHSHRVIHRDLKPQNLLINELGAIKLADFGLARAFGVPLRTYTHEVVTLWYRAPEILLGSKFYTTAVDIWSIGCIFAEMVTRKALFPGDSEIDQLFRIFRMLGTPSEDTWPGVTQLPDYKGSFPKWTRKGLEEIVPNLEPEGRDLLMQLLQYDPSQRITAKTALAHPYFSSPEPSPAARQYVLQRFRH
JAK2, sequence (O60674 whole entry): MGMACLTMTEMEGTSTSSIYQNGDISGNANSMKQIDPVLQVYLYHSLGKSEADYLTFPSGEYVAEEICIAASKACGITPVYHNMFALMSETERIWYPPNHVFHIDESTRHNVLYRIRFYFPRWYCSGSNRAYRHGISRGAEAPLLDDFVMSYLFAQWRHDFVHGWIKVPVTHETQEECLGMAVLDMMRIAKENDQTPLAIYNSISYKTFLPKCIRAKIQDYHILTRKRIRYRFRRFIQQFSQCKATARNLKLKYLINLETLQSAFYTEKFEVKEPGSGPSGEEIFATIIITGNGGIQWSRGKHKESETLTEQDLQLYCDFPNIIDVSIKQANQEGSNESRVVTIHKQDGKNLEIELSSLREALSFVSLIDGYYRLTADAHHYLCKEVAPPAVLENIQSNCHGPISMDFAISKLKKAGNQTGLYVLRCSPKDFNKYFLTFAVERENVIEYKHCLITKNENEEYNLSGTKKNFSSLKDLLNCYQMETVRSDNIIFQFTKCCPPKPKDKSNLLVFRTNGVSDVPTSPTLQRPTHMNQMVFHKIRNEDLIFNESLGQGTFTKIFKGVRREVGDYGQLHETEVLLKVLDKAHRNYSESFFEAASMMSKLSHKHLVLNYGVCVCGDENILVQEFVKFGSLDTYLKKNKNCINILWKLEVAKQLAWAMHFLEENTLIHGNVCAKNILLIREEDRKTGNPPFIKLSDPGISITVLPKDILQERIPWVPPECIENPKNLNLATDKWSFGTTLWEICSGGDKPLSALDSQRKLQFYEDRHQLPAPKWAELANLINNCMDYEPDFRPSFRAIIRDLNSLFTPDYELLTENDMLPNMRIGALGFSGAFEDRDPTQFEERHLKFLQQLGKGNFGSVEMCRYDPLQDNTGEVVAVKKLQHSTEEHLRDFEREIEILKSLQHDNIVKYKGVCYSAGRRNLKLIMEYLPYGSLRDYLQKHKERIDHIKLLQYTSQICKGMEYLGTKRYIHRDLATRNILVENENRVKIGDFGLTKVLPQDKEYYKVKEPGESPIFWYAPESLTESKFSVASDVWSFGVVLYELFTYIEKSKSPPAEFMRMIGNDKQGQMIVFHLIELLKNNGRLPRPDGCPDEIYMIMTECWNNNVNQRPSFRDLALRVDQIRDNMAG
IKK-beta, sequence (O14920 whole entry): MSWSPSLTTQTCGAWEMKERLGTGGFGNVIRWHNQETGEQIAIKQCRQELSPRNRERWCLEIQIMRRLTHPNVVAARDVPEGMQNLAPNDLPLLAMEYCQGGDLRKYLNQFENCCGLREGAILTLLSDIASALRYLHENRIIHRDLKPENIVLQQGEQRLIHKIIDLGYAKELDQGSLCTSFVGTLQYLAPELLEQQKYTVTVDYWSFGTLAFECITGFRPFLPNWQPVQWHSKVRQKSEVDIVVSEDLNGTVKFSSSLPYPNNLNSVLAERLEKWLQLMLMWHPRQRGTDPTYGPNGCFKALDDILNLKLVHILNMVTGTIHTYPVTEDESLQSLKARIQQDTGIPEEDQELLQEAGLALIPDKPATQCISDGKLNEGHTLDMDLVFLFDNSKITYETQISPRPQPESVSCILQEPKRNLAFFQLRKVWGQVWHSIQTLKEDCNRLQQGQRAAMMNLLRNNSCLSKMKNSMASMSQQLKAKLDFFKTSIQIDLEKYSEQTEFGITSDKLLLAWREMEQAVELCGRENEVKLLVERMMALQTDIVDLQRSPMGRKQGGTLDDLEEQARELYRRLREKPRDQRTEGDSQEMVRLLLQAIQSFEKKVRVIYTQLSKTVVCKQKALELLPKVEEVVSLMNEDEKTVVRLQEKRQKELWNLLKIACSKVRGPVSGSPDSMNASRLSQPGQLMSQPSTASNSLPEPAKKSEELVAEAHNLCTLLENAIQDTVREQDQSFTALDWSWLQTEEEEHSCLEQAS
EPHB2, sequence (P29323 19-1055): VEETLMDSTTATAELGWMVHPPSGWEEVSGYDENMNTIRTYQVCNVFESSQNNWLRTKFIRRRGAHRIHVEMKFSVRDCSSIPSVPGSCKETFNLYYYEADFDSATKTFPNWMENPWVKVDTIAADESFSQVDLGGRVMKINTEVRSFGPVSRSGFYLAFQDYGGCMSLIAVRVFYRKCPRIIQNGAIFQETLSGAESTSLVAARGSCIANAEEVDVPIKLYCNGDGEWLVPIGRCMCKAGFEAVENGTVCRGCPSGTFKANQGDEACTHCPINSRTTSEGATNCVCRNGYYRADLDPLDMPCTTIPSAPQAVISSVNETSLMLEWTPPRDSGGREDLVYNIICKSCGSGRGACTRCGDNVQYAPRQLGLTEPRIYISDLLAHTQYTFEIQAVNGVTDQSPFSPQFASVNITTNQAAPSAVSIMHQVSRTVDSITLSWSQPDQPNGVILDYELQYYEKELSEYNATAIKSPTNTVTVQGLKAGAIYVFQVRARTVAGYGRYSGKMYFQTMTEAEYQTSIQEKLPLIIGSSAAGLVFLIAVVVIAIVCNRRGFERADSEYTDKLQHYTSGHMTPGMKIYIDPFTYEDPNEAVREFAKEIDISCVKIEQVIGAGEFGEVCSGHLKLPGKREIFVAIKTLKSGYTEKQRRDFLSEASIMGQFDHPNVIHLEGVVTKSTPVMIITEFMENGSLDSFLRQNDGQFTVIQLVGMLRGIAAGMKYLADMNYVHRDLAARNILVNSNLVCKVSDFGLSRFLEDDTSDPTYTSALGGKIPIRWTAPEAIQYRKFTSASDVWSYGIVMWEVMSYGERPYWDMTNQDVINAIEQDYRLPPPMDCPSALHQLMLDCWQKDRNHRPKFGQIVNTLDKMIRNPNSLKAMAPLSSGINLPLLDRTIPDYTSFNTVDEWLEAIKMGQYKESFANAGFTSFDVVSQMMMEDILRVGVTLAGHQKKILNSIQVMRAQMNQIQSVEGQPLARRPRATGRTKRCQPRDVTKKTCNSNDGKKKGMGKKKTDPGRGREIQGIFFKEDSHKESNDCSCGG
RPS6KA5 (Kin.Dom.1-N-terminal), sequence (O75582 49-318): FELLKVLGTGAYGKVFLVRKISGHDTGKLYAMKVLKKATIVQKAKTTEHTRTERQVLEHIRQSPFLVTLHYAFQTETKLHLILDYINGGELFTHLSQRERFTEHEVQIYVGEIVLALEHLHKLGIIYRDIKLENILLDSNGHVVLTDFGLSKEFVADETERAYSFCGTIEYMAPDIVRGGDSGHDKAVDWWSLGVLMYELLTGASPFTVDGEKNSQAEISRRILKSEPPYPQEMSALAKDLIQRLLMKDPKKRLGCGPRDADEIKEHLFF

SMILES	pIC50 (JAK2)	remaining binding at 1 µM (MST1)	remaining binding at 1 µM (MAP3K1)	remaining binding at 1 µM (CDK3)	remaining binding at 1 µM (RET (M918T))	remaining binding at 1 µM (SIK2)	remaining binding at 1 µM (MAP4K5)	remaining binding at 1 µM [1]	remaining binding at 1 µM (GFR(L747-S752del, P753S))	remaining binding at 1 µM (PKMYT1)	remaining binding at 1 µM (S6K1)	remaining binding at 1 µM (ALK(L1196M))	remaining binding at 1 µM (GSK3A)	remaining binding at 1 µM (PRKD3)	remaining binding at 1 µM (PAK2)	remaining binding at 1 µM (CSK)	remaining binding at 1 µM [2]	remaining binding at 1 µM (PYK2)	remaining binding at 1 µM (NEK9)	remaining binding at 1 µM (FLT4)	other results
CCN1CCN(Cc2cc(NC(=O)c3ccc(C)c(-c4ccc5nc(NC(=O)C6CC6)cn5n4)c3)cc(C(F)(F)F)c2)CC1 [Compound I-2, 3-(2-(cyclopropanecarboxamido)imidazo[1,2-b]pyridazin-6-yl)-N-(3-((4-ethylpiperazin-1-yl)methyl)-5-(trifluoromethyl)phenyl)-4-methylbenzamide]	6.72	30%	97%	5.7%	0.05%	100%	0.7%	73%	19%	100%	52%	9.9%	43%	100%	93%	39%	97%	3.2%	100%	0.05%	remaining binding at 1 µM (EPHA7): 3.3%; remaining binding at 1 µM [3]: 100%; remaining binding at 1 µM (PRKD2): 97%; remaining binding at 1 µM (ULK3): 97%; remaining binding at 1 µM (EPHB2): 0%; remaining binding at 1 µM (CSNK1G3): 96%; remaining binding at 1 µM (IKK-beta): 50%; remaining binding at 1 µM (CAMK2A): 100%; remaining binding at 1 µM (CSNK1E): 86%; remaining binding at 1 µM (EPHB 1): 0.65%; remaining binding at 1 µM (ROS1): 52%; remaining binding at 1 µM (OSR1): 99%; remaining binding at 1 µM (PIK3CA): 78%; remaining binding at 1 µM (CAMK2D): 100%; remaining binding at 1 µM (DCAMKL1): 90%; remaining binding at 1 µM (MLK2): 72%; remaining binding at 1 µM (BTK): 68%
CCN1CCN(Cc2cc(NC(=O)c3ccc(C)c(-c4ccc5nc(NC(=O)C6CC6)cn5c4)c3)cc(C(F)(F)F)c2)CC1 [Compound I-6, 3-(2-(cyclopropanecarboxamido)imidazo[1,2-a]pyridin-6-yl)-N-(3-((4-ethylpiperazin-1-yl)methyl)-5-(trifluoromethyl)phenyl)-4-methylbenzamide]	6.55	60%	94%	40%	0%	100%	3.2%	66%	12%	100%	49%	21%	68%	90%	70%	21%	100%	4.1%	92%	0.3%	remaining binding at 1 µM (EPHA7): 2%; remaining binding at 1 µM [3]: 96%; remaining binding at 1 µM (PRKD2): 100%; remaining binding at 1 µM (ULK3): 100%; remaining binding at 1 µM (EPHB2): 0%; remaining binding at 1 µM (CSNK1G3): 92%; remaining binding at 1 µM (IKK-beta): 80%; remaining binding at 1 µM (CAMK2A): 100%; remaining binding at 1 µM (CSNK1E): 93%; remaining binding at 1 µM (EPHB 1): 0.25%; remaining binding at 1 µM (ROS1): 59%; remaining binding at 1 µM (OSR1): 100%; remaining binding at 1 µM (PIK3CA): 96%; remaining binding at 1 µM (CAMK2D): 92%; remaining binding at 1 µM (DCAMKL1): 84%; remaining binding at 1 µM (MLK2): 62%; remaining binding at 1 µM (BTK): 87%
